Experiment [1] has as its system Sh^5eag^1 mutant flies. Description: Spontaneous locomotor activity in flies, pair-wise visual comparison of vials on a scale of '0', '+' or '−'. The class given is in vivo, Drosophila melanogaster. Conditions: baseline NF flies; 73 comparisons; 5th day; 20 flies per vial. On the procedure: To further understand the activity profile of the plant material, flies were treated with either NF or NF containing either ethanol alone (NF+ET) or ethanol and extract both (NF+ET+EX). The ethanol concentration used was 20% (v/v). Other details were as described earlier. On 5th day, spontaneous locomotor activity in flies was pair-wise compared either between NF and NF+ET or between NF+ET and NF+ET+EX. Two vials representing the two treatments were kept side by side in an inverted position. There were 20 flies in each vial. The flies' activity in a group was visually estimated on a scale of ‘0’, ‘+’ or ‘−’, as described below. To compare between NF and NF+ET, the sum total of activity seen in the vial containing NF flies was considered ‘0’. The activity in the NF+ET vial was then given a ‘0’, ‘+’ or ‘−’, depending on whether it is equal, more or less than the activity observed in NF vial respectively. The process was repeated 73 times spanning an entire day. In this test, ethanol treated flies received 23 ‘0’s, no ‘+’ and 50 ‘−’s. […] NF+
ET and NF+ET+EX flies were similarly compared, with the activity in the former serving as baseline, i.e., ‘0’. In this test, NF+ET+EX received no ‘0’, 73 ‘+’5 and no ‘−’. […] First, ethanol decreases spontaneous locomotor activity in flies. Second, Acorus extract increases spontaneous locomotor activity in flies treated with ethanol, a CNS depressant drug.
Having observed a stimulant activity of Acorus extract in flies under the influence of alcohol, the question whether the extract also stimulates normal flies, i.e., individuals not under the drug's influence, was asked. To answer this, spontaneous locomotor activity in NF and NF+EX flies were compared, as described above. NF flies' activity served as the baseline. In the test conducted the extract treated flies received 18 ‘0’5 […] and 2 ‘−’s.

In experiment [2] the test system is Sh^5eag^1 mutant flies. Briefly: Time of recovery from diethyl ether anesthesia in individual fly pairs. The class given is in vivo, Drosophila melanogaster. As to conditions: NF+PS; PS 1 mg/ml in fly food; 10 fly pairs. As to the method:
Standard Drosophila manipulation methods were followed. Cultures were grown on a medium containing maize powder, sugar, yeast and Nipagin. Flies were maintained and further manipulated at room temperature. Experimental conditions were kept identical throughout. The double mutant Sh^5eag^1 was generated using standard methods of Drosophila genetics. Male flies of similar age were used in the experiment. In routine screening, flies were anesthetized in various groups and then allowed to recover in an identical manner. For further testing, individual fly pairs were used as described below. Following different treatments, flies were first anesthetized with diethyl ether and healthy looking individuals shifted to a number of empty vials in such a way that each vial received two flies, one from each treatment. Before shifting, flies from one of the two treatments were marked on their wings for the purpose of identification. Flies were allowed to recover fully. After an hour, each fly pair was subjected to the following test. […]
To understand the above activity, and others, if any, of the Acorus extracts in Drosophila in a quantitative manner, following experiments were carried out using acetone extract as the representative substance. […] First, time of recovery from ether anesthesia was measured in individual flies. […] Following this, recovery time was determined as described earlier. […]

Experiment [3] relates to Sh^5eag^1 mutant flies. Conditions: from Sharma and Kumar, Ser. No. 09/789,525; cited from earlier work.

Consider `CCO` [ethanol], for which, in the experiment with Sh^5eag^1 mutant flies [1], the “spontaneous locomotor activity: number of '0's (times equally active)” value was found to be 23, the “spontaneous locomotor activity: number of '+'s (times more active)” value was “no” and the “spontaneous locomotor activity: number of '−'s (times less active)” value was 50.

On to `CCC1(c2ccccc2)C(=O)NC(=O)NC1=O` [phenobarbital sodium], for which the “recovery time from ether anesthesia” value in the experiment on Sh^5eag^1 mutant flies [2] came out at 11.3 ± 2.38 min. Also, in the experiment with Sh^5eag^1 mutant flies [3], the “effect on recovery from ether anesthesia in flies” value is reported as “causes a delay in recovery”.

The values above are taken from US6617491B2, “Use of drosophila melanogaster as a model for screening psychostimulant plant materials” (Council of Scientific & Industrial Research, priority 2001, dated 2003).
